Measured values from patent publication US12422443B2, “Amino-substituted chromenoquinoline-based fluorescent marker, and preparation and use thereof” (SOOCHOW UNIVERSITY, priority 2021, dated 2025).

Assays:
[1] = Photostability under iodine-tungsten lamp irradiation (residual absorptivity); assay type: physicochemical; details: 10 μM in acetonitrile, 500 W iodine-tungsten lamp at 25 cm, 6 hrs irradiation
Description: The photostability of the above prepared dyes 1a-1d was tested (at a concentration of 10 μM). Dyes 1a-1d and the reference substance Cy7 of corresponding weights were weighed, and respectively dissolved in acetonitrile (at a concentration of 10 μM). All samples were irradiated with a Philips iodine-tungsten lamp (500 W), where the distance between the lamp and the sample was set to 25 cm. An 8 cm-thick sodium nitrite (60 g per liter) cold trap was placed between the lamp and the sample, to eliminate the heat and short-wavelength light. The irradiation was continued for 6 hrs, during which UV and fluorescence were performed every half hour. After six hours, the light stability was measured by residual absorptivity calculated based on the change in the absorption intensity at various times before and after the irradiation. […] It can be seen that dyes 1a-1d have higher photostability compared to cyanine dyes.

[2] = Ultraviolet absorption and fluorescence emission in dichloromethane; assay type: physicochemical; details: 10 μM in dichloromethane; for highest fluorescence intensity (emission wavelength): excitation 428 nm (1a), 407 nm (1b), 461 nm (1c), 430 nm (1d), slit 3 nm/3 nm (1d: 5 nm/3 nm)
Description: The ultraviolet absorption and fluorescence emission performances of the dyes 1a-1d prepared above (at a concentration of 10 μM) in dichloromethane were tested. The horizontal ordinate is the wavelength, and the vertical ordinate is the absorbance and fluorescence intensity, respectively.
(§1) The ultraviolet absorption and fluorescence emission spectra of the fluorescent marker 1a (at a concentration of 10 μM) in dichloromethane are shown in FIG. 3. The fluorescent marker 1a has the maximum absorption at 452 nm (FIG. 3 (a)); and the fluorescent marker 1a has the highest fluorescence intensity at 532 nm (FIG. 3 (e)), where the excitation wavelength is 428 nm, and the slit width is 3 nm/3 nm.
as §1, with “1b” for “1a”, “473” for “452”, “(b));” for “(a));”, “562” for “532”, “(f)),” for “(e)),”, “407” for “428”
as §1, with “1c” for “1a”, “375” for “452”, “(c));” for “(a));”, “546” for “532”, “(g)),” for “(e)),”, “461” for “428”
The ultraviolet absorption and fluorescence emission spectra of the fluorescent marker 1d (at a concentration of 10 μM) in dichloromethane are shown in FIG. 3. The fluorescent marker 1d has the maximum absorption at 429 nm (FIG. 3 (d)); and the fluorescent marker 1d has the highest fluorescence intensity at 495 nm (FIG. 3 (h)), where the excitation wavelength is 430 nm, and the slit width is 5 nm/3 nm.

[3] = tested on: lipid droplets in Hela cells; experiment: Lipid droplet labeling, colocalized confocal imaging with Nile Red in Hela cells; assay type: cell-based; details: 5 min; for lipid droplet labeling ability (in words): 1a and 1b 6 μM, 1c 5 μM, 1d 8 μM
Source text: In the following examples, the cells are imaged by laser confocal microscopy, where excitation at 405 nm is employed in the green light channel, and the fluorescence signal in the range of 468-550 nm is collected; and excitation at 561 nm is employed in the red light channel, and the fluorescence signal in the range of 570-750 nm is collected.
To test the fluorescent labeling ability of the fluorescent marker 1a compared with a commercial lipid droplet marker, the fluorescent marker 1a was prepared into a stock solution in dimethyl sulfoxide, and then added to a conventional cell culture medium, to give a concentration of the fluorescent marker 1a in the cell culture medium of 6 μM. Subsequently, Nile Red (100 nM), a lipid droplet red marker, was added and co-incubated with Hela cells in an incubator at saturated humidity, 37° C., and 5% CO2 for 5 min (the same below); The cells were washed three times with a PBS buffer, and imaged by laser confocal microscopy, where excitation at 405 nm was employed in the green light channel, and the fluorescence signal in the range of 468-550 nm was collected; and excitation at 561 nm was employed in the red light channel, and the fluorescence signal in the range of 570-750 nm was collected. The results are shown in FIG. 5, in which (a) is the bright field, (b) is the cell image with the fluorescent marker 1a, (c) is the cell image with the lipid droplet Red marker, (d) is overlapped image of the green light channel and the red light channel, (e) is the fluorescence intensity of the ROI line in the overlapped image, and (f) is the colocalization assay, where the colocalization coefficient is 0.95.
To verify the labeling effect of the fluorescent marker 1b (6 μM) on lipid droplets in Hela cells, the same experimental method as that with the fluorescent marker 1a was used.
The experimental method with the fluorescent marker 1c (5 μM) was the same as that with the fluorescent marker 1a.
To verify whether Compound 1d can be used in fluorescence imaging of lipid droplets in Hela cells just as the probes 1a-1c do, a cell assay was carried out. The fluorescent marker 1d was prepared into a stock solution in dimethyl sulfoxide, and then added to a conventional cell culture medium, to give a concentration of the fluorescent marker 1d in the cell culture medium of 8 μM. The Hela cells were co-incubated in an incubator at saturated humidity, 37° C., 5% CO2 for 5 min. The cells were washed three times with a PBS buffer, and imaged by laser confocal microscopy, where excitation at 405 nm was employed in the green light channel, and the fluorescence signal in the range of 468-550 nm was collected. […] The results are shown in FIG. 5, in which(s) is the bright field, (t) is the cell image with the fluorescent marker 1d, (u) is the cell image with the lipid droplet Red marker, (v) is overlapped image of the green light channel and the red light channel, (w) is the fluorescence intensity of the ROI line in the overlapped image, and (x) is the colocalization assay, where the colocalization coefficient is 0.90.

[4] = tested on: mitochondria in Hela cells; experiment: Mitochondria labeling, colocalized confocal imaging with CMA Ros in Hela cells; assay type: cell-based
[5] = 6 μM marker with Nile Red (100 nM)

Row | SMILES | photostability (residual absorptivity) [1] [%] | maximum absorption [2] [nm] | highest fluorescence intensity (emission wavelength) [2] [nm] | colocalization coefficient [3, 5] | lipid droplet labeling ability (in words) [3] | colocalization coefficient ([3]; 5 μM marker with Nile Red (100 nM)) | mitochondria labeling ability (in words) ([4]; 8 μM) | colocalization coefficient ([4]; 8 μM marker with CMA Ros (100 nM))
1 | CCN(CC)c1ccc2nc3c(cc2c1)c(=O)oc1cc(N(CC)CC)ccc13 [1b] | 43 | 473 | 562 | 0.97 | good targeting ability to lipid droplets in Hela cells |  |  | 
2 | CCN(CC)c1ccc2c(c1)oc(=O)c1cc3ccc4ccccc4c3nc12 [1c] | 76 | 375 | 546 |  | good targeting ability to lipid droplets in Hela cells | 0.85 |  | 
3 | CCN(CC)c1ccc2nc3c(cc2c1)c(=O)oc1ccccc13 [1a] | 46 | 452 | 532 | 0.95 | has lipid droplet labeling ability in Hela cells |  |  | 
4 | CCN(CC)c1ccc2c(c1)oc(=O)c1cc3c(ccc4nc5c(cc43)c(=O)oc3cc(N(CC)CC)ccc35)nc12 [1d] | 71 | 429 | 495 |  | does not stain the lipid droplets in the cells |  | has the ability to label mitochondria | 0.90
